Calls of active or inactive are those of the source. No cut-off for these calls is given here.
Key:
[1] = target: Cytochrome P450 2C19 (Homo sapiens, UniProt P33261); assay: Inhibition of CYP2C19; format: ADME
[2] = target: Cytochrome P450 2C9 (Homo sapiens, UniProt P11712); assay: Inhibition of CYP2C9; format: ADME
[3] = target: Cytochrome P450 2D6 (Homo sapiens, UniProt P10635); assay: Inhibition of CYP2D6; format: ADME
[4] = target: Cytochrome P450 1A2 (Homo sapiens, UniProt P05177); assay: Inhibition of CYP1A2; format: ADME
[5] = target: Cytochrome P450 3A4 (Homo sapiens, UniProt P08684); assay: Inhibition of CYP3A4; format: ADME
[6] = target: Neuronal acetylcholine receptor subunit alpha-7 (Rattus norvegicus, UniProt Q05941); assay: Displacement of [125I]alpha-BTX from alpha-7 nAChR in rat hippocampus membrane; format: cell membranes
[7] = system: Rattus norvegicus; assay: Reverse activity against scopolamine-induced impairment of cognitive performance in Wistar rat at 10 mg/kg, po by 8-arm radial maze task method; format: functional, organism-based; design: dose 10 mg/kg
[8] = Half life in monkey at 1 mg/kg, po; format: ADME, organism-based, Macaca mulatta; design: dose 1 mg/kg, route oral; conditions: rhesus monkey, in vivo
[9] = target: Adrenergic receptor alpha-1 (Homo sapiens, UniProt P35348+P25100+P35368); assay: Binding affinity to adrenergic alpha-1 receptor; format: protein assay
[10] = Cmax in monkey at 3 mg/kg, po; format: ADME, organism-based, Macaca mulatta; design: dose 3 mg/kg, route oral; conditions: rhesus monkey, in vivo
[11] = system: Rattus norvegicus; assay: Effect on MK-801-induced sensory gating in Wistar rat at 1 mg/kg, sc; format: functional, organism-based; design: dose 1 mg/kg
[12] = Tmax in rat at 10 mg/kg, po; format: ADME, organism-based; design: dose 10 mg/kg, route oral; conditions: in vivo
[13] = Tmax in monkey at 1 mg/kg, po; format: ADME, organism-based, Macaca mulatta; design: dose 1 mg/kg, route oral; conditions: rhesus monkey, in vivo
[14] = Volume of distribution in rat at 3 mg/kg, iv; format: ADME, organism-based; design: dose 3 mg/kg, route intravenous; conditions: in vivo, read-out: Vss
[15] = target: Muscarinic acetylcholine receptor; assay: Binding affinity to muscarinic receptor; format: protein assay, Homo sapiens
[16] = Tmax in monkey at 3 mg/kg, po; format: ADME, organism-based, Macaca mulatta; design: dose 3 mg/kg, route oral; conditions: rhesus monkey, in vivo
[17] = Tmax in monkey at 3 mg/kg, iv; format: ADME, organism-based, Macaca mulatta; design: dose 3 mg/kg, route intravenous; conditions: rhesus monkey, in vivo
[18] = Oral bioavailability in rat at 10 mg/kg, po; format: ADME, organism-based; conditions: in vivo
[19] = system: Rattus norvegicus; assay: Increase in extracellular dopamine level in Wistar rat medial prefrontal cortex at 30 mg/kg, po; format: functional, organism-based; design: dose 30 mg/kg
[20] = system: Rattus norvegicus; assay: Reverse activity against scopolamine-induced impairment of cognitive performance in Wistar rat at 3 mg/kg, po by 8-arm radial maze task method; format: functional, organism-based; design: dose 3 mg/kg
[21] = target: Histamine H3 receptor (Homo sapiens, UniProt Q9Y5N1); assay: Binding affinity to histamine H3 receptor
[22] = Oral bioavailability in monkey at 10 mg/kg, po; format: ADME, organism-based, Macaca mulatta; conditions: rhesus monkey, in vivo
[23] = Half life in rat at 10 mg/kg, po; format: ADME, organism-based; design: dose 10 mg/kg, route oral; conditions: in vivo
[24] = target: Glutamate [NMDA] receptor; assay: Binding affinity to NMDA receptor glycine site; format: protein-complex assay, Homo sapiens
[25] = Cmax in rat at 10 mg/kg, po; format: ADME, organism-based; design: dose 10 mg/kg, route oral; conditions: in vivo
[26] = Permeability in rat assessed as ratio of concentration in brain to plasma at 10 mg/kg, po; format: ADME, organism-based; design: dose 10 mg/kg, route oral; conditions: brain and plasma, read-out: BBR
[27] = Clearance in monkey at 3 mg/kg, iv; format: ADME, organism-based, Macaca mulatta; design: dose 3 mg/kg, route intravenous; conditions: rhesus monkey, in vivo
[28] = AUC (0-infinity) in rat at 30 mg/kg, po; format: ADME, organism-based; design: time infinity, dose 30 mg/kg, route oral; conditions: plasma
[29] = Cmax in rat at 30 mg/kg, po; format: ADME, organism-based; design: dose 30 mg/kg, route oral; conditions: in vivo
[30] = target: 5-hydroxytryptamine receptor 1A (Homo sapiens, UniProt P08908); assay: Binding affinity to 5HT1A receptor
[31] = target: Glutamate receptor ionotropic AMPA (Homo sapiens, UniProt P42261+P42262+P42263+P48058); assay: Binding affinity to AMPA receptor; format: protein-complex assay
[32] = Half life in rat at 30 mg/kg, po; format: ADME, organism-based; design: dose 30 mg/kg, route oral; conditions: in vivo
[33] = target: D(2) dopamine receptor (Homo sapiens, UniProt P14416); assay: Binding affinity to D2 receptor
[34] = Half life in monkey at 10 mg/kg, po; format: ADME, organism-based, Macaca mulatta; design: dose 10 mg/kg, route oral; conditions: rhesus monkey, in vivo
[35] = AUC (0-infinity) in monkey at 10 mg/kg, po; format: ADME, organism-based, Macaca mulatta; design: time infinity, dose 10 mg/kg, route oral; conditions: rhesus monkey, plasma
[36] = target: Serotonin 3 (5-HT3) receptor; assay: Binding affinity to 5HT3 receptor; format: protein-complex assay, Homo sapiens
[37] = Oral bioavailability in monkey at 3 mg/kg, po; format: ADME, organism-based, Macaca mulatta; conditions: rhesus monkey, in vivo
[38] = system: Rattus norvegicus; assay: Increase in extracellular dopamine level in Wistar rat medial prefrontal cortex at 10 mg/kg, po; format: functional, organism-based; design: dose 10 mg/kg
[39] = Oral bioavailability in monkey at 1 mg/kg, po; format: ADME, organism-based, Macaca mulatta; conditions: rhesus monkey, in vivo
[40] = Cmax in monkey at 1 mg/kg, po; format: ADME, organism-based, Macaca mulatta; design: dose 1 mg/kg, route oral; conditions: rhesus monkey, in vivo
[41] = target: Histamine H1 receptor (Homo sapiens, UniProt P35367); assay: Binding affinity to histamine H1 receptor
[42] = target: D(4) dopamine receptor (Homo sapiens, UniProt P21917); assay: Binding affinity to D4 receptor
[43] = target: D(3) dopamine receptor (Homo sapiens, UniProt P35462); assay: Binding affinity to D3 receptor
[44] = target: Adrenergic receptor alpha-2 (Homo sapiens, UniProt P08913+P18825+P18089); assay: Binding affinity to adrenergic alpha2 receptor; format: protein assay
[45] = Half life in rat at 3 mg/kg, iv; format: ADME, organism-based; design: dose 3 mg/kg, route intravenous; conditions: in vivo
[46] = Tmax in rat at 30 mg/kg, po; format: ADME, organism-based; design: dose 30 mg/kg, route oral; conditions: in vivo
[47] = AUC (0-infinity) in rat at 10 mg/kg, po; format: ADME, organism-based; design: time infinity, dose 10 mg/kg, route oral; conditions: plasma
[48] = Cmax in monkey at 3 mg/kg, iv; format: ADME, organism-based, Macaca mulatta; design: dose 3 mg/kg, route intravenous; conditions: rhesus monkey, in vivo
[49] = target: 5-hydroxytryptamine receptor 3A (Cavia porcellus) (UniProt O70212); assay: Antagonist activity against 5HT3 receptor assessed as inhibition of 5HT-induced contraction of guinea pig ileum; format: functional, tissue-based
[50] = target: Neuronal acetylcholine receptor subunit alpha-7 (Homo sapiens) (UniProt P36544); assay: Activity at alpha-7 nAChR assessed as stimulation of relative inward current in cultured hippocampal neurons relative to choline; format: functional, tissue-based; conditions: Hippocampus, filed as partial agonist
[51] = Tmax in monkey at 10 mg/kg, po; format: ADME, organism-based, Macaca mulatta; design: dose 10 mg/kg, route oral; conditions: rhesus monkey, in vivo
[52] = Half life in monkey at 3 mg/kg, iv; format: ADME, organism-based, Macaca mulatta; design: dose 3 mg/kg, route intravenous; conditions: rhesus monkey, in vivo
[53] = target: D(1A) dopamine receptor (Homo sapiens, UniProt P21728); assay: Binding affinity to D1 receptor
[54] = AUC (0-infinity) in monkey at 3 mg/kg, iv; format: ADME, organism-based, Macaca mulatta; design: dose 3 mg/kg, route intravenous, time infinity; conditions: rhesus monkey, plasma
[55] = target: Neuronal acetylcholine receptor; alpha4/beta2 (Rattus norvegicus, UniProt P09483+P12390); assay: Inhibition of [3H]Cytisine binding to alpha-4-beta-2 nACh receptor in rat cerebral cortex membrane; format: cell membranes
[56] = AUC (0-infinity) in monkey at 1 mg/kg, po; format: ADME, organism-based, Macaca mulatta; design: time infinity, dose 1 mg/kg, route oral; conditions: rhesus monkey, plasma
[57] = Half life in monkey at 3 mg/kg, po; format: ADME, organism-based, Macaca mulatta; design: dose 3 mg/kg, route oral; conditions: rhesus monkey, in vivo
[58] = Cmax in monkey at 10 mg/kg, po; format: ADME, organism-based, Macaca mulatta; design: dose 10 mg/kg, route oral; conditions: rhesus monkey, in vivo
[59] = target: Glutamate [NMDA] receptor; assay: Binding affinity to NMDA receptor PCP site; format: protein-complex assay, Homo sapiens
[60] = Volume of distribution in monkey at 3 mg/kg, iv; format: ADME, organism-based, Macaca mulatta; design: dose 3 mg/kg, route intravenous; conditions: rhesus monkey, in vivo, read-out: Vss
[61] = Clearance in rat at 3 mg/kg, iv; format: ADME, organism-based; design: dose 3 mg/kg, route intravenous; conditions: in vivo
[62] = Oral bioavailability in rat at 30 mg/kg, po; format: ADME, organism-based; conditions: in vivo
[63] = AUC (0-infinity) in monkey at 3 mg/kg, po; format: ADME, organism-based, Macaca mulatta; design: time infinity, dose 3 mg/kg, route oral; conditions: rhesus monkey, plasma
[64] = target: Adrenergic receptor beta (Homo sapiens, UniProt P08588+P07550+P13945); assay: Binding affinity to adrenergic beta receptor; format: protein assay
[65] = target: Serotonin 2 (5-HT2) receptor (Homo sapiens, UniProt P41595+P28223+P28335); assay: Binding affinity to 5HT2 receptor; format: protein assay

Cytochrome P450 2D6, sequence (P10635 whole entry): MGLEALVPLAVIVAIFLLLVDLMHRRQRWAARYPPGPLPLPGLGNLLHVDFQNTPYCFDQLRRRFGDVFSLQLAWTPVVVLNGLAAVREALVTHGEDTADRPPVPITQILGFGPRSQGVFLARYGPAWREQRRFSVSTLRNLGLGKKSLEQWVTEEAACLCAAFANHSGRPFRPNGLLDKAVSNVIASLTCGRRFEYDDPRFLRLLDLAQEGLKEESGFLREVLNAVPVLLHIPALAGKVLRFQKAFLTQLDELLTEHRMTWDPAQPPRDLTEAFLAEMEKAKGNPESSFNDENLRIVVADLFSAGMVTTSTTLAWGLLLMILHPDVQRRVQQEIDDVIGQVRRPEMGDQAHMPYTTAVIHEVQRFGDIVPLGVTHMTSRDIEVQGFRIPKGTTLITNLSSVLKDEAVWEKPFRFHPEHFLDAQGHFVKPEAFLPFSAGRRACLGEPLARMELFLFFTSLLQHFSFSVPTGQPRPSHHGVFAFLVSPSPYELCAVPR
Neuronal acetylcholine receptor subunit alpha-7, sequence (Q05941 whole entry): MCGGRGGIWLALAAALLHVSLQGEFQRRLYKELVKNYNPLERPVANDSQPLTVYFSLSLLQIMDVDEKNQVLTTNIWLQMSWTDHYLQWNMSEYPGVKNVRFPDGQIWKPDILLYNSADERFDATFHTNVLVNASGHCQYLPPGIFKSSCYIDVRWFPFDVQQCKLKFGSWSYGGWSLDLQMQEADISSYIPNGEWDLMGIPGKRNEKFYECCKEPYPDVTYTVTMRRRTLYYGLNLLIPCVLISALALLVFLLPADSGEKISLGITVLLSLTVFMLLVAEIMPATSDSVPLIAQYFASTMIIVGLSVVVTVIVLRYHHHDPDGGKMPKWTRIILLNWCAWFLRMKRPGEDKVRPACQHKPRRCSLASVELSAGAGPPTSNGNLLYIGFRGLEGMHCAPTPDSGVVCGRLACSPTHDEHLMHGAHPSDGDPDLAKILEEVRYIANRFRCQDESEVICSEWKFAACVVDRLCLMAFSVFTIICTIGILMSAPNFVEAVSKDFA
Cytochrome P450 1A2, sequence (P05177 whole entry): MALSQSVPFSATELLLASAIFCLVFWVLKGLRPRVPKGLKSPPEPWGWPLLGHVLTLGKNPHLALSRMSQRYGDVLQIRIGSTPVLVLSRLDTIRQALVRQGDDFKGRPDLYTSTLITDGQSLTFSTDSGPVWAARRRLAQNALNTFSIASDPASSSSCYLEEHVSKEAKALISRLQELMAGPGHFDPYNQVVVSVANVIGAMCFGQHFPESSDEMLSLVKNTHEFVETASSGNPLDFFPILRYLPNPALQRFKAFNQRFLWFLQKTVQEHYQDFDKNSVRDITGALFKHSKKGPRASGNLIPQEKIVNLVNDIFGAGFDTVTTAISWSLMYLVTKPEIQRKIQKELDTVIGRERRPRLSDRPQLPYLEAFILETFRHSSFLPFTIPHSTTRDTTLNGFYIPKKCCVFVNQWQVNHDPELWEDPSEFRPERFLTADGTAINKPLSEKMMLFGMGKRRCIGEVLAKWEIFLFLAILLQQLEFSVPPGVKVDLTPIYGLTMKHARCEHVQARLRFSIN
Cytochrome P450 2C9, sequence (P11712 whole entry): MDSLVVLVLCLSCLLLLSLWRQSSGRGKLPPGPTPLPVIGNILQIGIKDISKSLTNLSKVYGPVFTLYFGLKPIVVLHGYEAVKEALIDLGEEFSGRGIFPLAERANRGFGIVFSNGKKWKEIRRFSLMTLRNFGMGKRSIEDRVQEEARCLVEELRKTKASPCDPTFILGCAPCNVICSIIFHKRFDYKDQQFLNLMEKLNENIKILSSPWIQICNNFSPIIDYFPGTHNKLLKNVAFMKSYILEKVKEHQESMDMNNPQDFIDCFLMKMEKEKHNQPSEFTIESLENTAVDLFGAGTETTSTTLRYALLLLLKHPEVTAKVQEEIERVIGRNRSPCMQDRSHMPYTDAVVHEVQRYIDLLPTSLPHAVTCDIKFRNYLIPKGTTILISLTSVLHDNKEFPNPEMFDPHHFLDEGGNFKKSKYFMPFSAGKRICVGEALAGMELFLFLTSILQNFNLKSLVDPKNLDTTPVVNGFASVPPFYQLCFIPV
Cytochrome P450 2C19, sequence (P33261 whole entry): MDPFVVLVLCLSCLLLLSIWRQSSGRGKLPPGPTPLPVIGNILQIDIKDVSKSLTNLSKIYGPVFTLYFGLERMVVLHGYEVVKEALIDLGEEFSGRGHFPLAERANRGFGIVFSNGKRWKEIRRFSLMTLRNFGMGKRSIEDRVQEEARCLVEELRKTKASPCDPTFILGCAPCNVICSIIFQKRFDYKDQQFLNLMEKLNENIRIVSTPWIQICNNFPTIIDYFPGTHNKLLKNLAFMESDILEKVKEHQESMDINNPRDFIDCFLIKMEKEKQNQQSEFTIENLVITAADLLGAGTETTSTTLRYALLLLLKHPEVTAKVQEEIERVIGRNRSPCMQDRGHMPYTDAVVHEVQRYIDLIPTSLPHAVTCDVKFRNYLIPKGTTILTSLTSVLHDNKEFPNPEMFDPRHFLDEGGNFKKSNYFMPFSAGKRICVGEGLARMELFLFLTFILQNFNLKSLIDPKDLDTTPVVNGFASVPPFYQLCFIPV
Cytochrome P450 3A4, sequence (P08684 whole entry): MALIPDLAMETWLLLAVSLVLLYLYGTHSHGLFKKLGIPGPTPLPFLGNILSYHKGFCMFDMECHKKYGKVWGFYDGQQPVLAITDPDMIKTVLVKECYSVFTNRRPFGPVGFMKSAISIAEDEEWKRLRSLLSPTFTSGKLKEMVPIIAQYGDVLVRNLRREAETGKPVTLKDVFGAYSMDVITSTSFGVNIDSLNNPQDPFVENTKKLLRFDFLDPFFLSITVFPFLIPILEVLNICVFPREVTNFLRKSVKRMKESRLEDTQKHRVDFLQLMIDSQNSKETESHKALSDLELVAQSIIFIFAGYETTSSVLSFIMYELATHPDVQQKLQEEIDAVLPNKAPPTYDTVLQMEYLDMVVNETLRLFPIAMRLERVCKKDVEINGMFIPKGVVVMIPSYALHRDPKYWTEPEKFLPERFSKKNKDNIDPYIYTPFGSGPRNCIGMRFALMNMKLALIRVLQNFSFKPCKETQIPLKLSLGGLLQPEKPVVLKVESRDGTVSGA
Histamine H3 receptor, sequence (Q9Y5N1 whole entry): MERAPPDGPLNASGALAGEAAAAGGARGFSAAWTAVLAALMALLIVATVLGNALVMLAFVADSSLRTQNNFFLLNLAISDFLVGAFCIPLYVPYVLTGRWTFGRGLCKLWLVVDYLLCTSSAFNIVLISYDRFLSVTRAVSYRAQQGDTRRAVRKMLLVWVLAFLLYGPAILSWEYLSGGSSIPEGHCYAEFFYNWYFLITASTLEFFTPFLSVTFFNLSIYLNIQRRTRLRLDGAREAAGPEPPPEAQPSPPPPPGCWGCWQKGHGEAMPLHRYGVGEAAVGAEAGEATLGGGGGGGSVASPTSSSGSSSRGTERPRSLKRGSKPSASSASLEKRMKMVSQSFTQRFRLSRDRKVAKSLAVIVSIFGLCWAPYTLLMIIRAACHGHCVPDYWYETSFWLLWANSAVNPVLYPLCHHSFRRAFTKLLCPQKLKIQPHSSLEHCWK
D(2) dopamine receptor, sequence (P14416 whole entry): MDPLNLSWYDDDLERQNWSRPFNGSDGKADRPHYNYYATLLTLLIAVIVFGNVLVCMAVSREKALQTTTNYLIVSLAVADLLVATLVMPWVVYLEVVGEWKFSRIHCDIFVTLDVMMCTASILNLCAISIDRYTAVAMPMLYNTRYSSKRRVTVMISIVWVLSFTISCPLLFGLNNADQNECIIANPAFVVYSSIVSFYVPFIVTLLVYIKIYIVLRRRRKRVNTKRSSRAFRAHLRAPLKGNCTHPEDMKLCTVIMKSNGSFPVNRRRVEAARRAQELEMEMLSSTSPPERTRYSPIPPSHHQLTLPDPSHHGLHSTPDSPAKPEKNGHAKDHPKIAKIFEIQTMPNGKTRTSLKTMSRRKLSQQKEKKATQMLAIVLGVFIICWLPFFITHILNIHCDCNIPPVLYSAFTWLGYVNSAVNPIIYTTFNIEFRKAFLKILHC
Neuronal acetylcholine receptor subunit alpha-7 (Homo sapiens), sequence (P36544 whole entry): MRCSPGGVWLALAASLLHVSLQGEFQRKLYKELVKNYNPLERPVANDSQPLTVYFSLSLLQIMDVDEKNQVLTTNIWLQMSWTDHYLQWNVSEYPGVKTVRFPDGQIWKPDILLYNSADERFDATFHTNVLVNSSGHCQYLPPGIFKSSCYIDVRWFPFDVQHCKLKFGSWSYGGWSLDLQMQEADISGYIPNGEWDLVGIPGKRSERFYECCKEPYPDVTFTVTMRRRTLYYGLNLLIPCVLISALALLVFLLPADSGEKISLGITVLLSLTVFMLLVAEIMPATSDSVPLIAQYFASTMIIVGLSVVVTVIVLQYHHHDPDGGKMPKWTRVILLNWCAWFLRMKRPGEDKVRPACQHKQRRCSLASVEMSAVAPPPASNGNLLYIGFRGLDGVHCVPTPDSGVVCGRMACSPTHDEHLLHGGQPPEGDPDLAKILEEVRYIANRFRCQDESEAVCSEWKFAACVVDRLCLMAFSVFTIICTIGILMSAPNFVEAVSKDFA
5-hydroxytryptamine receptor 3A (Cavia porcellus), sequence (O70212 whole entry): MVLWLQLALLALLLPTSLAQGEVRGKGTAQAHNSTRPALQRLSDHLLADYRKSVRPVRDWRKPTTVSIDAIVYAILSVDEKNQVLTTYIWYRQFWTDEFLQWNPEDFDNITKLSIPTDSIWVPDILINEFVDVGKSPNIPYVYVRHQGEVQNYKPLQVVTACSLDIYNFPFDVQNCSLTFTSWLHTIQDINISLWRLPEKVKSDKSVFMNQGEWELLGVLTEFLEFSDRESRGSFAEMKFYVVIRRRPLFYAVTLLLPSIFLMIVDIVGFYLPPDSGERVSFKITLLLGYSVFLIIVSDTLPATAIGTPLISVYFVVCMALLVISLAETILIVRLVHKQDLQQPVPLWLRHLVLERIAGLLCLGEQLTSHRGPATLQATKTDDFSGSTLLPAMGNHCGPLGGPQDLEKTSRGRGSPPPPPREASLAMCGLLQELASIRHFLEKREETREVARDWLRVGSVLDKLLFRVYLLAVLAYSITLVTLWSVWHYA

O=C1O[C@]2(CN3CCC2CC3)CN1c1ccc(Cl)s1
Activity [1]: Not Active
Activity [2]: Not Active
IC50 [3]: 2 µM
Activity [4]: Not Active
Activity [5]: Not Active

O=C1OC2(CN3CCC2CC3)CN1c1ccc2ncccc2c1 (single isomer, unassigned)
IC50 [6]: > 1 µM

O=C1O[C@]2(CN3CCC2CC3)CN1c1ccc2sc(Cl)cc2c1
Ki [6]: 0.034 µM
IC50 [3]: > 30 µM

Cc1coc2ccc(N3C[C@@]4(CN5CCC4CC5)OC3=O)cc12
Activity [1]: Not Active
Ki [6]: 0.003 µM
Activity [7]: Dose-dependent effect
half-life [8]: 4.2 h
IC50 [9]: > 10 µM
Cmax [10]: 75.5 ng/mL
Activity [11]: Active
Tmax [12]: 0.44 h
Tmax [13]: 2 h
Vd [14]: 7.59 L/kg
IC50 [15]: > 10 µM
Tmax [16]: 3.3 h
Activity [2]: Not Active
Tmax [17]: 0.36 h
bioavailability [18]: 10.5%
Activity [19]: Active
Activity [20]: Dose-dependent effect
IC50 [21]: > 10 µM
bioavailability [22]: 82.8%
half-life [23]: 3 h
IC50 [24]: > 10 µM
Cmax [25]: 120 ng/mL
Kp [26]: 10.2
clearance [27]: 70.2 mL/min/kg
AUC(0-inf) [28]: 1010 ng·h/mL
Cmax [29]: 618 ng/mL
IC50 [30]: > 10 µM
IC50 [31]: > 10 µM
half-life [32]: 1.7 h
IC50 [33]: > 10 µM
half-life [34]: 6 h
AUC(0-inf) [35]: 2020 ng·h/mL
IC50 [36]: 0.01 µM
bioavailability [37]: 57.2%
Activity [38]: Active
IC50 [3]: > 30 µM
bioavailability [39]: 25.8%
Cmax [40]: 9.1 ng/mL
IC50 [41]: > 10 µM
IC50 [42]: > 10 µM
IC50 [43]: > 10 µM
IC50 [44]: > 10 µM
half-life [45]: 3.3 h
Tmax [46]: 0.38 h
AUC(0-inf) [47]: 225 ng·h/mL
Cmax [48]: 288 ng/mL
Activity [49]: Active
Activity [50]: Partial agonist
Activity [4]: Not Active
Tmax [51]: 2.3 h
half-life [52]: 1.9 h
IC50 [53]: > 10 µM
AUC(0-inf) [54]: 732 ng·h/mL
IC50 [55]: > 10 µM
AUC(0-inf) [56]: 63 ng·h/mL
half-life [57]: 5.4 h
Activity [5]: Not Active
Cmax [58]: 384 ng/mL
IC50 [59]: > 10 µM
Vd [60]: 10.7 L/kg
clearance [61]: 83.3 mL/min/kg
bioavailability [62]: 17.3%
AUC(0-inf) [63]: 387 ng·h/mL
IC50 [64]: > 10 µM
IC50 [65]: > 10 µM

Cc1cc2cc(N3C[C@@]4(CN5CCC4CC5)OC3=O)ccc2s1
IC50 [3]: > 30 µM

Cc1oc2ccc(N3C[C@]4(CN5CCC4CC5)OC3=O)cc2c1C
Ki [6]: 0.004 µM
IC50 [3]: > 30 µM
